Assay results as given in publication PMC4492759, “Pharmacological profiling of the hemodynamic effects of cannabinoid ligands: a combined in vitro and in vivo approach” (Pharmacology Research & Perspectives, 2015).

Tests used:
[1] = tested on: anesthetized WT and GPR55−/− mice; assay: Hemodynamic responses (MABP, HR) in anesthetized WT and GPR55−/− mice; assay type: in vivo, mouse; conditions: O-1602 5–100 ng kg−1 i.v.; WT mice
Experimental: All experiments performed under terminal anesthesia were carried out following approval by Robert Gordon University Animal Ethics Panel. Anesthesia was induced in male SD rats (200–300 g) by sodium pentobarbital [60 mg kg^−1 intraperitoneal (i.p.) injection]. Male/female WT and GPR55^−/− mice (25–35 g) were anesthetized with a mixture of ketamine (120 mg kg^−1) and xylazine (16 mg kg^−1) via i.p. injection. For both species the trachea was cannulated to allow artificial respiration with room air when required (54 strokes min^−1 and tidal volume 1.5 mL 100 g^−1 for rats; 120 strokes min^−1 and tidal volume 100 μL 10 g^−1 for mice) and the left carotid artery and right jugular vein were cannulated for the measurement of arterial BP (MLT844 Physiological Pressure Transducer; AD Instruments, Oxford, UK) and drug administration, respectively. Core temperature was monitored continuously and maintained at 37–38°C with the aid of a Vetcare heated pad (Harvard Apparatus Ltd., Boston, Massachusetts, USA). Anesthesia was monitored by foot pinch reflex and maintained throughout by administration of additional doses of anesthetic (rats: 3–4 mg kg^−1 of sodium pentobarbital salt i.v.; mice: 50 μL 25 g^−1of ketamine/xylazine i.p.) every 40 min, or as required. […] Heart rate (HR) was calculated from the ECG and recorded throughout the entire experimental period. After a stabilization period of approximately 15 min dose–response experiments were carried out as described below.
As a preliminary assessment of the effects of ACEA on arterial BP, a single bolus intravenous dose (3 mg kg^−1; selected from the literature as a dose known to produce a depressor response) was given to anesthetized rats. […] The time interval between drug administrations was 10–15 min to allow BP values to return to predrug values.

[2] = molecular target: T1, rat CB1 (Rattus norvegicus, UniProt P20272); assay: [35S]-GTPγS binding, membranes of HEK293s cells transfected with rat CB1; assay type: biochemical; conditions: agonist mode; mean ± SEM, at least three experiments; read-out: CB1 EC50, Rat
T1 construct: expressed in transfected cells; host or cells: HEK293s, transient transfection; membranes prepared
T1 sequence (P20272 whole entry): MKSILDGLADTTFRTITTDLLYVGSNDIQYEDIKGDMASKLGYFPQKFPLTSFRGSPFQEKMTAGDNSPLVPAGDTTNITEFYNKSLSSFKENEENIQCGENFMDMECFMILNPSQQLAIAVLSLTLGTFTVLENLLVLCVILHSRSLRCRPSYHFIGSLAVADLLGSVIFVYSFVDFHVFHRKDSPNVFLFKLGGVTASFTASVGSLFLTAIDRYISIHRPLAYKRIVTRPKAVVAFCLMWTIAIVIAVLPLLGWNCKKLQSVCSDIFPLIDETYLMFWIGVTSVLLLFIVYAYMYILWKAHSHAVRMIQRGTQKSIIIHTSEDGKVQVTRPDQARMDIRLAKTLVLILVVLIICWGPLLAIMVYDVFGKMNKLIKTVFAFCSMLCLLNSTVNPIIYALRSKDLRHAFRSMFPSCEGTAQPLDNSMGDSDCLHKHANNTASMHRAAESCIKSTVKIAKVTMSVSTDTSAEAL
Experimental: Antagonist assays were performed similarly, with the addition of an EC80 concentration of CP55940 as a nonselective CB1/CB2 agonist in conjunction with the ligand to be tested. Nonspecific binding was determined in the presence of 20 μmol/L unlabeled GTPγS. The reaction was terminated by addition of ice-cold wash buffer (50 mmol/L Tris-HCl, 5 mmol/L MgCl2, 50 mmol/L NaCl; pH 7.4) followed by rapid filtration under vacuum through 96-well B-glass fiber filter plates (PerkinElmer, Waltham, Massachusetts, USA) using a Biomek FX (Beckman Coulter, Bromma, Sweden). The filter plates were dried (30 min at 50°C) before scintillation liquid (PerkinElmer) was added onto the filters and the bound radioactivity was determined using a scintillation counter (Wallac). Data were fitted with a four-parameter logistic fit using the equation y = A + (B − A)/1 + ((C/x)^D), where A is no activation, B is full activation, C is the EC50, and D is the Hill slope. All data were based on at least three independent experiments.

[3] = tested on: conscious SHR; assay: Blood pressure and heart rate responses in conscious hypertensive rats (SHR)
Experimental: Following anesthesia with isoflurane (4% in air followed by 2% during surgery) with supplemental Romefen® (10 mg kg^−1 s.c.; Merial SAS, Lyon, France) for analgesia, a polyethylene catheter (PE10) was inserted into the abdominal aorta, proximal to the kidneys, for BP recording, and a silicon catheter (SEDAT, Irigny, France) was inserted into the jugular vein for drug administration. Both catheters were tunneled subcutaneously to the neck region and anchored to an inert button. Immediately after completion of surgery the rats were connected to a tethered swivel system with a continuous intra-arterial infusion (700 μL h^−1) of 0.9% NaCl containing melagatran (10 mg L^−1) in order to keep the arterial line open. The anesthetic and surgical procedures for the CB1^−/−, GPR55^−/−, and WT mice used for the studies in conscious animals were identical to those in the rat, with the exception that the arterial catheter was placed in the descending aorta via the carotid artery. Following the completion of surgery, the animals were allowed to recover for 24 h with free access to food and water.
In order to take account of any vehicle responses and variations in the time course of the responses to the various cannabinoid ligands, a standard approach was adopted to measuring the BP responses in all experimental models. […] All drug responses were compared directly with the vehicle responses to determine the exact magnitude of the response to the ligand.

[4] = tested on: conscious WT, CB1−/− and GPR55−/− mice; assay: Blood pressure and heart rate responses in conscious mice (WT, CB1−/−, GPR55−/−); conditions: for HR bradycardic response - area above the curve / MABP depressor response - area above the curve: metoprolol pretreated
[5] = O-1602 5 mg kg−1, +AM281 (10 mg kg−1), metoprolol pretreated
[6] = O-1602 5 mg kg−1, +CBD (5 mg kg−1), metoprolol pretreated
[7] = O-1602 5 mg kg−1, +CBD and AM281, metoprolol pretreated
[8] = O-1602 10 mg kg−1, +AM281 (10 mg kg−1), metoprolol pretreated
[9] = O-1602 10 mg kg−1, +CBD (5 mg kg−1), metoprolol pretreated
[10] = O-1602 10 mg kg−1, +CBD and AM281, metoprolol pretreated
[11] = O-1602 10 mg kg−1, Control, metoprolol pretreated
[12] = O-1602 20 mg kg−1, +AM281 (10 mg kg−1), metoprolol pretreated
[13] = O-1602 20 mg kg−1, +CBD (5 mg kg−1), metoprolol pretreated
[14] = O-1602 20 mg kg−1, +CBD and AM281, metoprolol pretreated
[15] = O-1602 20 mg kg−1, Control, metoprolol pretreated
[16] = O-1602 5 mg kg−1, +CBD (5 mg kg−1)
[17] = O-1602 5 mg kg−1, column Control
[18] = O-1602 10 mg kg−1, +CBD (5 mg kg−1)
[19] = O-1602 10 mg kg−1, column Control
[20] = O-1602 15 mg kg−1, +CBD (5 mg kg−1)
[21] = O-1602 15 mg kg−1, column Control

Question: What does the source list for `C=C(C)[C@@H]1CCC(C)=C[C@H]1c1c(C)cc(O)cc1O` [O-1602]?
Answer: changes in MABP or HR over and above vehicle [1]: did not produce any changes; EC50 [2]: > 30 µM; HR tachycardic response – area under the curve [3, 5]: 39 ± 11 arbitrary units; MABP depressor response - area above the curve [3, 5]: 196 ± 44 arbitrary units; HR tachycardic response – area under the curve [3, 6]: 68 ± 11 arbitrary units; MABP depressor response - area above the curve [3, 6]: 189 ± 32 arbitrary units; HR tachycardic response – area under the curve [3, 7]: 53 ± 22 arbitrary units; MABP depressor response - area above the curve [3, 7]: 41 ± 17 arbitrary units; MABP depressor response - area above the curve ([3]; O-1602 5 mg kg−1, Control, metoprolol 10 mg kg−1 i.v. pretreated): 59 ± 21 arbitrary units; HR tachycardic response – area under the curve ([3]; O-1602 5 mg kg−1, Control, metoprolol pretreated): 61 ± 24 arbitrary units; HR tachycardic response – area under the curve [3, 8]: 40 ± 12 arbitrary units; MABP depressor response - area above the curve [3, 8]: 160 ± 31 arbitrary units; HR tachycardic response – area under the curve [3, 9]: 79 ± 29 arbitrary units; MABP depressor response - area above the curve [3, 9]: 23 ± 17 arbitrary units; HR tachycardic response – area under the curve [3, 10]: 37 ± 32 arbitrary units; MABP depressor response - area above the curve [3, 10]: 180 ± 29 arbitrary units; HR tachycardic response – area under the curve [3, 11]: 18 ± 8 arbitrary units; MABP depressor response - area above the curve [3, 11]: 56 ± 22 arbitrary units; HR tachycardic response – area under the curve [3, 12]: 56 ± 26 arbitrary units; MABP depressor response - area above the curve [3, 12]: 191 ± 30 arbitrary units; HR tachycardic response – area under the curve [3, 13]: 98 ± 32 arbitrary units; MABP depressor response - area above the curve [3, 13]: 73 ± 38 arbitrary units; HR tachycardic response – area under the curve [3, 14]: 38 ± 16 arbitrary units; MABP depressor response - area above the curve [3, 14]: 199 ± 29 arbitrary units; HR tachycardic response – area under the curve [3, 15]: 72 ± 13 arbitrary units; MABP depressor response - area above the curve [3, 15]: 26 ± 16 arbitrary units; changes in MABP or HR ([3]; O-1602 alone, three ascending doses 5, 10, and 20 mg kg−1 spaced 20 min apart): did not induce any changes; HR bradycardic response - area above the curve ([4]; O-1602 5 mg kg−1, +AM281): 55.3 ± 20.9 arbitrary units; MABP depressor response - area above the curve ([4]; O-1602 5 mg kg−1, +AM281): 64.6 ± 17.5 arbitrary units; HR bradycardic response - area above the curve ([4]; O-1602 5 mg kg−1, +CBD & AM281): 154.8 ± 61.7 arbitrary units; HR bradycardic response - area above the curve [4, 16]: 17.4 ± 11.7 arbitrary units; MABP depressor response - area above the curve [4, 16]: 99.6 ± 25.8 arbitrary units; MABP depressor response - area above the curve ([4]; O-1602 5 mg kg−1, +CBD and AM281): 73.3 ± 24.5 arbitrary units; HR bradycardic response - area above the curve [4, 17]: 41.1 ± 20.8 arbitrary units; MABP depressor response - area above the curve [4, 17]: 91.9 ± 38.2 arbitrary units; HR bradycardic response - area above the curve ([4]; O-1602 10 mg kg−1, +AM281): 130.5 ± 20.5 arbitrary units; MABP depressor response - area above the curve ([4]; O-1602 10 mg kg−1, +AM281): 95.2 ± 6.5 arbitrary units; HR bradycardic response - area above the curve ([4]; O-1602 10 mg kg−1, +CBD & AM281): 298.2 ± 111.7 arbitrary units; HR bradycardic response - area above the curve [4, 18]: 186.8 ± 42.1 arbitrary units; MABP depressor response - area above the curve [4, 18]: 73.5 ± 17.8 arbitrary units; MABP depressor response - area above the curve ([4]; O-1602 10 mg kg−1, +CBD and AM281): 114.6 ± 17.6 arbitrary units; HR bradycardic response - area above the curve [4, 19]: 48.7 ± 25.4 arbitrary units; MABP depressor response - area above the curve [4, 19]: 44.1 ± 9.6 arbitrary units; HR bradycardic response - area above the curve ([4]; O-1602 15 mg kg−1, +AM281): 183.1 ± 50.9 arbitrary units; MABP depressor response - area above the curve ([4]; O-1602 15 mg kg−1, +AM281): 101.5 ± 4.1 arbitrary units; HR bradycardic response - area above the curve ([4]; O-1602 15 mg kg−1, +CBD & AM281): 286.6 ± 105.4 arbitrary units; HR bradycardic response - area above the curve [4, 20]: 197.1 ± 17.1 arbitrary units; MABP depressor response - area above the curve [4, 20]: 148.9 ± 17.1 arbitrary units; MABP depressor response - area above the curve ([4]; O-1602 15 mg kg−1, +CBD and AM281): 119.7 ± 18.1 arbitrary units; HR bradycardic response - area above the curve [4, 21]: 95.3 ± 6.5 arbitrary units; MABP depressor response - area above the curve [4, 21]: 61.3 ± 10.9 arbitrary units; effect on MABP ([4]; O-1602, conscious CB1−/− mice): dose-dependent depressor response; effect on HR ([4]; O-1602 alone, highest dose tested, conscious WT mice): transient bradycardia; effect on MABP ([4]; O-1602 alone, conscious WT mice): no effect; depressor response ([4]; O-1602 in the presence of AM281 (10 mg kg−1), GPR55−/− mice): did not elicit a depressor response
